Laboratory results: patent US20050032873A1, “3-Amino chroman and 2-amino tetralin derivatives” (Wyeth, priority 2003, published 2005)
Read-outs that look alike come from different tables or passages of the source.

Tests used:
[1] = target: T1, 5-HT1A receptor (Homo sapiens, UniProt P08908); assay: cAMP accumulation assay, 5-HT1A function; assay type: cell-based; settings: for IC50: cells marked IC50 (antagonist), read-out: 5-HT1A Function cAMP IC50; for Emax: in brackets after EC50 or IC50, read-out: 5-HT1A Function cAMP (Emax); for EC50: cells marked EC50 (agonist)
T1 sequence (P08908 1-422): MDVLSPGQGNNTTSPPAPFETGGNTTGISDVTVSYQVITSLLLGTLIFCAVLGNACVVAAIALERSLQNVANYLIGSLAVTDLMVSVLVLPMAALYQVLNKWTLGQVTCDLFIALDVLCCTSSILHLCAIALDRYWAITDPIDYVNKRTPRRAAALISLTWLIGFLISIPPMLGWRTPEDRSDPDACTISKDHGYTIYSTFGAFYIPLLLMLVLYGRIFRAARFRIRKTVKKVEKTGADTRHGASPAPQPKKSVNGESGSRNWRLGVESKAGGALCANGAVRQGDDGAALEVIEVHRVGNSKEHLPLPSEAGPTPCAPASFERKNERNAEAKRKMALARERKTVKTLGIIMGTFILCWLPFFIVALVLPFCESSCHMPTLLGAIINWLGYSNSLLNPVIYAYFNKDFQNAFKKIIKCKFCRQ
From the text: The agonist or antagonist activity at 5-HT1A receptors was established by using two different assays. […] Agonists produce an increase in binding whereas antagonists produce no increase but rather reverse the effects of the standard agonist 8-OH-DPAT. The test compound's maximum stimulatory effect is represented as the Emax, while its potency is defined by the EC50. The test compound's maximum inhibitory effect is represented as the Imax, while its potency is defined by the IC50. The second assay measured cAMP accumulation upon binding of the ligand to the 5-HT1A receptor. […] The test compound's maximum stimulatory or inhibitory effect is represented as the Emax while its potency is defined by either IC50 for an antagonist or EC50 for an agonist. [^3H]-8-OH-DPAT was used to determine maximum agonist or antagonist response in both functional assays.

[2] = target: T1, 5-HT1A receptor; assay: 5-HT1A receptor affinity: displacement of [3H] 8-OH-DPAT; assay type: binding; set-up: expressed in transfected cells; settings: displacement of [3H] 8-OH-DPAT; CHO cells stably transfected with human 5-HT1A receptors; read-out: 5-HT1A Receptor Affinity Ki
[3] = target: T2, serotonin transporter (Rattus norvegicus, UniProt P31652); assay: 5-HT transporter affinity: displacement of 3H-paroxetine from male rat cortical membranes; assay type: binding; settings: for Ki: displacement of 3H-paroxetine, male rat cortical membranes, read-out: 5-HT Transporter Affinity Ki
T2 construct: displace ^3H-paroxetine from male rat cortical membranes; from tissue; host or cells: male rat cortical membranes

[4] = target: T3, cloned human 5-HT1A receptors (Homo sapiens, UniProt P08908); assay: 35S-GTPγS binding assay, 5-HT1A function; assay type: biochemical; settings: for IC50: antagonist potency, reversal of 8-OH-DPAT, read-out: 5-HT1A Function GTPγS IC50; for EC50: agonist potency
T3 construct: expressed in transfected cells
T3 sequence (P08908 1-422): T1 sequence (P08908 1-422)

[5] = maximum inhibitory effect, in brackets after IC50, read-out: 5-HT1A Function GTPγS (Imax)
[6] = maximum stimulatory effect, in brackets after EC50, read-out: 5-HT1A Function GTPγS (Emax)

T2 sequence (P31652 whole entry): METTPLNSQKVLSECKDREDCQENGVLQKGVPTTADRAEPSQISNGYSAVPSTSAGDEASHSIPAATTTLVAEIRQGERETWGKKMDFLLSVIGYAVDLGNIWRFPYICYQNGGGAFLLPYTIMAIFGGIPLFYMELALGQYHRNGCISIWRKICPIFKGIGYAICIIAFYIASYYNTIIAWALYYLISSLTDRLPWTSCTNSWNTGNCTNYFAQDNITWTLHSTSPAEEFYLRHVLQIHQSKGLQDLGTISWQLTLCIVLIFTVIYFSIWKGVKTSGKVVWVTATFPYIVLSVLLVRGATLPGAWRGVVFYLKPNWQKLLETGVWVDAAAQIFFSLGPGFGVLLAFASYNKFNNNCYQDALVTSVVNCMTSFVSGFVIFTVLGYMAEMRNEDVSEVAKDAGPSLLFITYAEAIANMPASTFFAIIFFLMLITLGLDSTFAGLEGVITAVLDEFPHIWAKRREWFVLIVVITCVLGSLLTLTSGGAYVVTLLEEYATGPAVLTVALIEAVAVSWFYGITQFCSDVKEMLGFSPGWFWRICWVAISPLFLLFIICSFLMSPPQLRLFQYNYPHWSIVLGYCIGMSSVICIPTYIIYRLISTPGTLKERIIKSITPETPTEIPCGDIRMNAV

SMILES	IC50 [1] [nM]	Emax [1] [%]	Ki [2] [nM]	Ki [3] [nM]	IC50 [4] [nM]	Emax [4, 5] [%]	EC50 [4] [nM]	Emax [4, 6] [%]	EC50 [1] [nM]	5-HT Transporter Affinity, % @ 1 μM ([3]; @ 1 μM) [% @ 1 μM]
NC(=O)c1ccc(F)c2c1C[C@@H](N(CCCCc1c[nH]c3ccc(F)cc13)C1CCC1)CO2 [Compound 83a, (3R)-3-{cyclobutyl[4-(5-fluoro-1H-indol-3-yl)butyl]amino}-8-fluorochromane-5-carboxamide]	173	0	3.43	13.2	505	100	–	–	–	–
NC(=O)c1ccc(F)c2c1C[C@H](N(CCCCc1c[nH]c3ccc(F)cc13)C1CCC1)CO2 [Compound 83b, (3S)-3-{cyclobutyl[4-(5-fluoro-1H-indol-3-yl)butyl]amino}-8-fluorochromane-5-carboxamide]	5800	0	111	16.9	2500	100	–	–	–	–
CNC(=O)c1ccc(F)c2c1CC(N(CCc1c[nH]c3ccc(F)cc13)CC1CC1)CO2 (stereo not drawn) [Compound 86, 3-{(cyclopropylmethyl)[2-(5-fluoro-1H-indol-3-yl)ethyl]amino}-8-fluoro-N-methylchromane-5-carboxamide]	229	0	8.82	70	773	100	–	–	–	–
CNC(=O)c1ccc(F)c2c1CC(N(CCc1c[nH]c3ccc(F)cc13)C1CCC1)CO2 (stereo not drawn) [Compound 87, 3-{cyclobutyl[2-(5-fluoro-1H-indol-3-yl)ethyl]amino}-8-fluoro-N-methylchromane-5-carboxamide]	172	0	7.01	26.5	513	100	–	–	–	–
CCCN(CCCc1c[nH]c2ccc(F)cc12)C1COc2c(F)ccc(C(=O)NC)c2C1 (stereo not drawn) [Compound 90, 8-fluoro-3-[[3-(5-fluoro-1H-indol-3-yl)propyl](propyl)amino]-N-methylchromane-5-carboxamide]	73.8	0	0.81	3.37	617	33	34.5	47	–	–
CNC(=O)c1ccc(F)c2c1CC(N(CCCc1c[nH]c3ccc(F)cc13)CC1CC1)CO2 (stereo not drawn) [Compound 91, 3-{(cyclopropylmethyl)[3-(5-fluoro-1H-indol-3-yl)propyl]amino}-8-fluoro-N-methylchromane-5-carboxamide]	88.3	0	2.28	3.33	191	77	–	–	–	–
CNC(=O)c1ccc(F)c2c1CC(N(CCCCc1c[nH]c3ccc(F)cc13)CC1CC1)CO2 (stereo not drawn) [Compound 94, 3-{(cyclopropylmethyl)[4-(5-fluoro-1H-indol-3-yl)butyl]amino}-8-fluoro-N-methylchromane-5-carboxamide]	58.4	0	1.66	1.27	141	100	–	–	–	–
CNC(=O)c1ccc(F)c2c1CC(N(CCCCc1c[nH]c3ccc(F)cc13)C1CCC1)CO2 (stereo not drawn) [Compound 95, 3-{cyclobutyl[4-(5-fluoro-1H-indol-3-yl)butyl]amino}-8-fluoro-N-methylchromane-5-carboxamide]	121	0	10	6.4	422	100	–	–	–	–
N#Cc1ccc2[nH]cc(CCCN(C3CCC3)[C@H]3COc4c(F)ccc(C(N)=O)c4C3)c2c1 [Compound 97b, (3R)-3-[[3-(5-cyano-1H-indol-3-yl)propyl](cyclobutyl)amino]-8-fluorochromane-5-carboxamide]	71	0	1.98	2.44	317	100	–	–	–	–
N#Cc1ccc2[nH]cc(CCCN(CC3CC3)[C@@H]3COc4c(F)ccc(C(N)=O)c4C3)c2c1 [Compound 98a, (3S)-3-[[3-(5-cyano-1H-indol-3-yl)propyl](cyclopropylmethyl)amino]-8-fluorochromane-5-carboxamide]	113	0	4.72	3.2	586	51	–	–	–	–
N#Cc1ccc2[nH]cc(CCCN(CC3CC3)[C@H]3COc4c(F)ccc(C(N)=O)c4C3)c2c1 [Compound 98b, (3R)-3-[[3-(5-cyano-1H-indol-3-yl)propyl](cyclopropylmethyl)amino]-8-fluorochromane-5-carboxamide]	162	0	6.8	5.5	456	99	–	–	–	–
COc1cccc2c(CCCN(C3CCC3)C3COc4c(F)ccc(C(N)=O)c4C3)c[nH]c12 (stereo not drawn) [Compound 102, 3-{cyclobutyl[3-(7-methoxy-1H-indol-3-yl)propyl]amino}-8-fluorochromane-5-carboxamide]	270	0	3.22	1110	557	100	–	–	–	–
COc1ccc2[nH]cc(CCCN(C3CCC3)C3COc4c(F)ccc(C(N)=O)c4C3)c2c1 (stereo not drawn) [Compound 107, 3-{cyclobutyl[3-(5-methoxy-1H-indol-3-yl)propyl]amino}-8-fluorochromane-5-carboxamide]	45.1	0	1.19	834	253	100	–	–	–	–
NC(=O)c1ccc(F)c2c1CC(N(CCCc1c[nH]c3c(Cl)cccc13)C1CCC1)CO2 (stereo not drawn) [Compound 111, 3-[[3-(7-chloro-1H-indol-3-yl)propyl](cyclobutyl)amino]-8-fluorochromane-5-carboxamide]	1060	0	26	66	1600	100	–	–	–	–

Other lines, results leading:

IC50 [1] [nM]	Emax [1] [%]	Ki [2] [nM]	Ki [3] [nM]	IC50 [4] [nM]	Emax [4, 5] [%]	EC50 [4] [nM]	Emax [4, 6] [%]	EC50 [1] [nM]	5-HT Transporter Affinity, % @ 1 μM ([3]; @ 1 μM) [% @ 1 μM]	SMILES
228	0	7.67	2.49	304	100	–	–	–	–	CCCN(CCCCc1c[nH]c2ccc(F)cc12)C1COc2c(F)ccc(C(=O)NC)c2C1 (stereo not drawn) [Compound 93, 8-fluoro-3-[[4-(5-fluoro-1H-indol-3-yl)butyl](propyl)amino]-N-methylchromane-5-carboxamide]
–	87	3.85	141	–	–	67.6	100	61.5	–	CCCN(CCCc1c[nH]c2c(OC)cccc12)C1COc2c(F)ccc(C(N)=O)c2C1 (stereo not drawn) [Compound 100, 8-fluoro-3-[[3-(7-methoxy-1H-indol-3-yl)propyl](propyl)amino]chromane-5-carboxamide]
–	68.5	0.5	642	–	–	103	99	45.1	–	CCN(CCCc1c[nH]c2c(OC)cccc12)C1COc2c(F)ccc(C(N)=O)c2C1 (stereo not drawn) [Compound 101, 3-{ethyl[3-(7-methoxy-1H-indol-3-yl)propyl]amino}-8-fluorochromane-5-carboxamide]
172	0	3.54	976	1000	95	–	–	–	–	COc1cccc2c(CCCN(CC3CC3)C3COc4c(F)ccc(C(N)=O)c4C3)c[nH]c12 (stereo not drawn) [Compound 103, 3-{(cyclopropylmethyl)[3-(7-methoxy-1H-indol-3-yl)propyl]amino}-8-fluorochromane-5-carboxamide]
–	99	0.61	–	111	42	53.1	47	2.53	53	CCCN(CCCc1c[nH]c2ccc(OC)cc12)C1COc2c(F)ccc(C(N)=O)c2C1 (stereo not drawn) [Compound 106, 8-fluoro-3-[[3-(5-methoxy-1H-indol-3-yl)propyl](propyl)amino]chromane-5-carboxamide]
45.4	0	1.17	882	94.2	100	–	–	–	–	COc1ccc2[nH]cc(CCCN(CC3CC3)C3COc4c(F)ccc(C(N)=O)c4C3)c2c1 (stereo not drawn) [Compound 108, 3-{(cyclopropylmethyl)[3-(5-methoxy-1H-indol-3-yl)propyl]amino}-8-fluorochromane-5-carboxamide]
–	75	6.45	4.59	196	59	244	61	36.4	–	CCN(CCCc1c[nH]c2c(Cl)cccc12)C1COc2c(F)ccc(C(N)=O)c2C1 (stereo not drawn) [Compound 110, 3-[[3-(7-chloro-1H-indol-3-yl)propyl](ethyl)amino]-8-fluorochromane-5-carboxamide]
